Assays:
[1] = test system: MDA-MB-231; assay: Cytotoxicity against paclitaxel-resistant human MDA-MB-231 cells after 24 hrs by MTT assay; format: functional, cell-based; conditions: MDA-MB-231, 24 h
[2] = Cytotoxicity against human MDA435 cells after 24 hrs by MTT assay; format: functional, cell-based; conditions: MDA-MB-435, 24 h
[3] = Cytotoxicity against human HL60 cells after 24 hrs by MTT assay; format: functional, cell-based; conditions: HL-60, 24 h
[4] = Cytotoxicity against human MES-SA cells after 24 hrs by MTT assay; format: functional, cell-based
[5] = Cytotoxicity against human MES-SA/Dx5 cells after 24 hrs by MTT assay; format: functional, cell-based; conditions: MES-SA/Dx5, 24 h
[6] = Stability in human liver microsomes at 1 uM pre-incubated for 5 mins in presence of NADPH and measured after 45 mins by LC/MS method; format: ADME; conditions: read-out: Stability
[7] = Stability in mouse liver microsomes at 1 uM pre-incubated for 5 mins in presence of NADPH and measured after 45 mins by LC/MS method; format: ADME; conditions: read-out: Stability
[8] = test system: MDA-MB-231; assay: Inhibition of cell proliferation of paclitaxel-resistant human MDA-MB-231 cells at 10 uM after 24 hrs by MTT assay; format: functional; conditions: MDA-MB-231, 24 h

Row | SMILES | IC50 [1] | other results
1 | c1cncc(-c2ccc(-c3nc4cccnc4n3C3CCCC3)cc2)c1 | > 10000 nM | 
2 | Cc1cccc(-c2nc3cccnc3n2C2CCCC2)c1Cl | 646 nM | 
3 | Cc1ccsc1-c1nc2cccnc2n1C1CCCC1 | 138 nM | 
4 | Cc1nnc(-c2ccc(-c3nc4cccnc4n3C3CCCC3)cc2)o1 | 21 nM | IC50 [2]: 28 nM; IC50 [3]: 70 nM; IC50 [4]: 25 nM; IC50 [5]: 80 nM; remaining at 0.75 h, 1 µM [6]: 75%; remaining at 0.75 h, 1 µM [7]: 75%; inhibition at 10 µM [8]: 77.3%
5 | CC(=O)O[C@H]1C(=O)[C@@]2(C)[C@H]([C@H](OC(=O)c3ccccc3)[C@]3(O)C[C@H](OC(=O)[C@H](O)[C@@H](NC(=O)c4ccccc4)c4ccccc4)C(C)=C1C3(C)C)[C@]1(OC(C)=O)CO[C@@H]1C[C@@H]2O [PACLITAXEL] | 457 nM | IC50 [3]: 7 nM; IC50 [4]: 8 nM; IC50 [5]: 5100 nM
6 | c1ccc(-c2nc3ncccc3n2C2CCCC2)cc1 | 7000 nM | 
7 | c1cnc2c(c1)nc(-c1ccc3c(c1)OCC3)n2C1CCCC1 | 513 nM | 
8 | CN(C)c1ncc(-c2nc3cccnc3n2C2CCCC2)cn1 | 45 nM | 
9 | CCS(=O)(=O)c1cccc(-c2nc3cccnc3n2C2CCCCC2)c1 | 164 nM | 
10 | COc1ncc(-c2nc3cccnc3n2C2CCCC2)c(OC)n1 | > 10000 nM | 
11 | Fc1cc(F)cc(-c2nc3ncccc3n2C2CCCCC2)c1 | 3800 nM | 
12 | c1cnc2c(c1)nc(-c1ccc(-c3nnco3)cc1)n2C1CCCC1 | 87 nM | 
13 | NC(=O)c1ccc(-c2nc3cccnc3n2C2CCCC2)cc1 | 8000 nM | 
14 | FC(F)(F)Oc1cccc(-c2nc3cccnc3n2C2CCCC2)c1 | 262 nM | 
15 | c1cnc2c(c1)nc(-c1ccc(-c3nnn[nH]3)cc1)n2C1CCCC1 | 765 nM | 
16 | COc1ccc(-c2nc3cccnc3n2C2CCCCC2)cc1 | 112 nM | 
17 | O=C(NC1CC1)c1ccc(-c2nc3cccnc3n2C2CCCC2)cc1 | 115 nM | remaining at 0.75 h, 1 µM [6]: 42%; remaining at 0.75 h, 1 µM [7]: 42%; inhibition at 10 µM [8]: 42%
18 | Fc1cccc(-c2nc3cccnc3n2C2CCCCC2)c1 | 342 nM | 
19 | FC(F)(F)c1cc(-c2nc3cccnc3n2C2CCCC2)cc(C(F)(F)F)c1 | 112 nM | 

Row | SMILES | IC50 [1] | other results
20 | CCNC(=O)c1ccc(-c2nc3cccnc3n2C2CCCC2)cc1 | 320 nM | 
21 | COc1ccc(-c2nc3cccnc3n2C2CCCC2)cn1 | 219 nM | 
22 | Cn1c(-c2cc(F)cc(F)c2)nc2ncccc21 | 2700 nM | 
23 | Cc1cc(-c2nc3cccnc3n2C2CCCC2)cnc1F | 70 nM | 
24 | Cn1c(-c2ccccc2)nc2cccnc21 | 4100 nM | 
25 | O=C(O)c1ccc(-c2nc3cccnc3n2C2CCCC2)cc1 | 600 nM | remaining at 0.75 h, 1 µM [6]: 80%; remaining at 0.75 h, 1 µM [7]: 80%
26 | CN(C)c1cccc(-c2nc3cccnc3n2C2CCCC2)c1 | 455 nM | 
27 | c1ccc(Oc2ccc(-c3nc4cccnc4n3C3CCCC3)cc2)cc1 | > 10000 nM | 
28 | Fc1ccc(-c2nc3cccnc3n2C2CCCC2)cc1 | 500 nM | 
29 | Fc1cc(F)cc(-c2nc3cccnc3n2C2CCCC2)c1 | 138 nM | 
30 | c1ccc(Cn2nccc2-c2nc3cccnc3n2C2CCCC2)cc1 | 348 nM | 
31 | Cc1ccc(-c2nc3cccnc3n2C2CCCCC2)cc1 | 7000 nM | 
32 | c1cnc2c(c1)nc(-c1cncnc1)n2C1CCCC1 | > 10000 nM | 
33 | COC(=O)c1ccc(-c2nc3cccnc3n2C2CCCC2)cc1 | 350 nM | remaining at 0.75 h, 1 µM [6]: 52%; remaining at 0.75 h, 1 µM [7]: 52%; inhibition at 10 µM [8]: 25%
34 | N#Cc1ccc(-c2nc3cccnc3n2C2CCCC2)cc1F | 2000 nM | 
35 | O=C(NCc1ccccc1)c1ccc(-c2nc3cccnc3n2C2CCCC2)cc1 | 620 nM | 
36 | CN(C)C(=O)c1ccc(-c2nc3cccnc3n2C2CCCC2)cc1 | 520 nM | 
37 | c1ccc(-c2nc3cccnc3n2C2CCCC2)cc1 | 3000 nM | 
38 | Cn1ccc2cc(-c3nc4cccnc4n3C3CCCC3)ccc21 | 90 nM | 

— ChEMBL document CHEMBL3351690, “Design, synthesis and structure--activity relationship (SAR) studies of imidazo[4,5-b]pyridine derived purine isosteres and their potential as cytotoxic agents” (Eur J Med Chem, 2015)
